# Measurements from patent US8580839B2, “Photosensitizer formulations and their use” (Biolitec Pharma Marketing Ltd, priority 2005, dated 2013).
# Test: Fluorescence detection of m-THPC tissue accumulation in patients after intravenous injection
# Type: in vivo
# Conditions: for fluorescence found/# patients tested: 0.05 mg/kg
# Procedure: Comparison of tissue accumulation of m-THPC in patients after administration of the standard m-THPC formulation (“m-THPC”) and a low concentration formulation with low dosage of m-THPC (“m-THPC-dl”).
# In this example, the two formulations were studied and compared to show m-THPC uptake in patient tissue after administration. The standard formulation (“m-THPC”) contained the standard concentration of m-THPC for photodynamic therapy, which is 4 mg/ml. The second formulation (“m-THPC-dl”) is a low concentration formulation containing 0.8 mg/ml of m-THPC. Each formulation was prepared with a mixture of pure propylene glycol and pure ethanol (3:2, v/v) as the excipient. Each patient received a reduced dosage of 0.05 mg of m-THPC per kg of body weight.
# After administration of the two different formulations, the fluorescence accumulation in patients was monitored and the large difference in the pharmacokinetics between the m-THPC and m-THPC-dl formulations was found.
# Comparison of tissue accumulation of m-THPC in patients after administration of the standard m-THPC formulation (“m-THPC”) and a low concentration formulation when m-THPC is diluted with aqueous lipid containing solubilizing preparation Lipofundin®.
# In this example, the two formulations were studied and compared to show m-THPC uptake in patient tissue after administration with […]. The standard formulation (“m-THPC”) contained the standard concentration of m-THPC for photodynamic therapy is 4 mg/ml. The second formulation (“m-THPC-Lipo”) is a low concentration formulation containing 0.08 mg/ml of m-THPC (dilution for 50 times, from standard level). It was prepared by the dilution of standard m-THPC solution with the concentration of 4 mg/ml by aqueous lipid containing solubilizing preparation. Lipofundin® MCT (10%, B. Braun Melsungen AG, Melsungen, Germany). Each patient received intravenously the low dosage of 0.05 mg of m-THPC per kg of body weight.
# After administration of the two different formulations, the fluorescence accumulation in patients was monitored and a no difference in the pharmacokinetics between the m-THPC and m-THPC-Lipo formulations was found.
structure (smiles),measurement,setting,value
"Oc1cccc(-c2c3nc(c(-c4cccc(O)c4)c4ccc([nH]4)c(-c4cccc(O)c4)c4nc(c(-c5cccc(O)c5)c5ccc2[nH]5)CC4)C=C3)c1 [m-THPC, Meta-tetra(hydroxyphenyl)chlorin]",patients with measurable fluorescence in the tumors,1 hour after drug injection,not detected in any patients
same,patients with strong fluorescence in the tumors,3 hours after injection,about 30%
same,fluorescence in perifocal and intact skin,2 days post-injection,there were patients where fluorescence in perifocal and intact skin was not observed
same,fluorescence found/# patients tested,"Intact skin, 15 min after injection",0/11
same,fluorescence found/# patients tested,"Intact skin, 1 hour after injection",0/11
same,fluorescence found/# patients tested,"Intact skin, 3 hours after injection",2/11
same,fluorescence found/# patients tested,"Intact skin, 1 day after injection",8/11
same,fluorescence found/# patients tested,"Intact skin, 2 days after injection",9/11
same,fluorescence found/# patients tested,"Perifocal skin, 15 min after injection",0/11
same,fluorescence found/# patients tested,"Perifocal skin, 1 hour after injection",0/11
same,fluorescence found/# patients tested,"Perifocal skin, 3 hours after injection",2/11
same,fluorescence found/# patients tested,"Perifocal skin, 1 day after injection",10/11
same,fluorescence found/# patients tested,"Perifocal skin, 2 days after injection",All
same,fluorescence found/# patients tested,"Tumor, 15 min after injection",0/11
same,fluorescence found/# patients tested,"Tumor, 1 hour after injection",0/11
same,fluorescence found/# patients tested,"Tumor, 3 hours after injection",4/11
same,fluorescence found/# patients tested,"Tumor, 1 day after injection",All
same,fluorescence found/# patients tested,"Tumor, 2 days after injection",All
